According to US9221756B2, “Pyrrole derivatives” (priority 2011, dated 2015):

Biological target: pneumolysin (Streptococcus pneumoniae serotype 2, UniProt Q04IN8)
Test: Inhibition of the haemolytic activity of pneumolysin (sheep erythrocytes)
Type: cell-based
Details: IC50, inhibition of pneumolysin-induced haemolysis of sheep erythrocytes

Sequence of pneumolysin (Q04IN8 whole entry): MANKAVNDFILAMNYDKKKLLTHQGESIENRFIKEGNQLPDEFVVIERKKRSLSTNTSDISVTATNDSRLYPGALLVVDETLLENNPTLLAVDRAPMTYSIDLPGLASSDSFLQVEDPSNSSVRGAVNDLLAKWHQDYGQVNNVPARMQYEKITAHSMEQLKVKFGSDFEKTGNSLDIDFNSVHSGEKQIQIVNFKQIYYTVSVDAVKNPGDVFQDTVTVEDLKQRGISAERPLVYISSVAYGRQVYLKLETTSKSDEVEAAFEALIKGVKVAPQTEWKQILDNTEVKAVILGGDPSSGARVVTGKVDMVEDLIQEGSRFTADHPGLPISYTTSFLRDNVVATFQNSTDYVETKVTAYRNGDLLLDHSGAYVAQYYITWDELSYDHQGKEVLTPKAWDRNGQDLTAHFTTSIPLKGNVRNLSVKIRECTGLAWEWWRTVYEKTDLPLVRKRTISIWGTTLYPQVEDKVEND

For CCOC(=O)c1c(O)c(O)c(C(=O)N2CCN(C)CC2)n1-c1ccc(OC)cc1 [UL1-037, ethyl 3,4-dihydroxy-1-(4-methoxyphenyl)-5-(4-methylpiperazine-1-carbonyl)-1H-pyrrole-2-carboxylate], the IC50 (class symbols of Table 1) was < 10 µM.
For CCOC(=O)c1c(O)c(O)c(C(=O)OCC)n1-c1ccc(OCCOCCOCCOCCOC)cc1 [UL2-036, diethyl 1-(4-(2,5,8,11-tetraoxatridecan-13-yloxy)phenyl)-3,4-dihydroxy-1H-pyrrole-2,5-dicarboxylate], the IC50 (class symbols of Table 1) was < 10 µM.
For CCOc1ccc(-n2c(C(=O)N(C)C)c(OCc3ccccc3)c(OCc3ccccc3)c2C(=O)N(C)C)cc1 [UL1-052, 3,4-bis(benzyloxy)-1-(4-ethoxyphenyl)-N^2,N^2,N^5,N^5-tetramethyl-1H-pyrrole-2,5-dicarboxamide], the IC50 (class symbols of Table 1) was < 10 µM.
With CCOC(=O)c1c(O)c(O)c(C(=O)OC(C)C)n1-c1ccc(OC)cc1 [UL2-021, 2-ethyl 5-isopropyl 3,4-dihydroxy-1-(4-methoxyphenyl)-1H-pyrrole-2,5-dicarboxylate] the IC50 (class symbols of Table 1) was < 10 µM.
CCOC(=O)c1c(O)c(O)c(C(=O)OCC)n1-c1ccc(C(C)(C)C)cc1 [UL2-032, diethyl 1-(4-(tert-butyl)phenyl)-3,4-dihydroxy-1H-pyrrole-2,5-dicarboxylate] was tested, and the IC50 (class symbols of Table 1) was < 10 µM.
COc1ccc(-n2c(C(=O)N3CCN(C(C)=O)CC3)c(O)c(O)c2C(=O)N2CCN(C(C)=O)CC2)cc1 [UL1-033, 1,1′-(4,4′-(3,4-dihydroxy-1-(4-methoxyphenyl)-1H-pyrrole-2,5-dicarbonyl)bis(piperazine-4,1-diyl))diethanone] was tested, and the IC50 (class symbols of Table 1) was < 10 µM.
In the case of COc1ccc(-n2c(C(=O)N(C)C)c(OC(=O)C3CCNCC3)c(OC(=O)C3CCNCC3)c2C(=O)N(C)C)cc1 [UL1-123, 2,5-bis(dimethylcarbamoyl)-1-(4-methoxyphenyl)-1H-pyrrole-3,4-diyl bis(piperidine-4-carboxylate)], the IC50 (class symbols of Table 1) is reported as < 10 µM.
For CCOC(=O)c1c(O)c(O)c(C(=O)OCC)n1-c1cccc(OC)c1 [UL2-004, diethyl 3,4-dihydroxy-1-(3-methoxyphenyl)-1H-pyrrole-2,5-dicarboxylate], the IC50 (class symbols of Table 1) was 10 to 20 µM.
With CCOC(=O)c1c(O)c(O)c(C(=O)OCC)n1-c1cc(OC)c(OC)c(OC)c1 [UL2-014, diethyl 3,4-dihydroxy-1-(3,4,5-trimethoxyphenyl)-1H-pyrrole-2,5-dicarboxylate] the IC50 (class symbols of Table 1) was < 10 µM.
In the case of CCOC(=O)c1c(O)c(O)c(C(=O)N(C)C)n1-c1ccc(OCCCN2CCN(C)CC2)cc1 [UL1-103, ethyl 5-(dimethylcarbamoyl)-3,4-dihydroxy-1-(4-(3-(4-methylpiperazin-1-yl)propoxy)phenyl)-1H-pyrrole-2-carboxylate], the IC50 (class symbols of Table 1) is reported as < 10 µM.
With COc1ccc(-n2c(C(=O)N(C)C)c(OC(=O)c3ccc(COP(=O)(O)O)cc3)c(OC(=O)c3ccc(COP(=O)(O)O)cc3)c2C(=O)N(C)C)cc1 [UL1-124, 2,5-bis(dimethylcarbamoyl)-1-(4-methoxyphenyl)-1H-pyrrole-3,4-diyl bis(4-((phosphonooxy)methyl)benzoate)] the IC50 (class symbols of Table 1) was < 10 µM.
COc1ccc(-n2c(C(=O)N3CCCCC3)c(OCc3ccccc3)c(OCc3ccccc3)c2C(=O)N2CCCCC2)cc1 [UL1-049, (3,4-bis(benzyloxy)-1-(4-methoxyphenyl)-1H-pyrrole-2,5-diyl)bis(piperidin-1-ylmethanone)] was tested, and the IC50 (class symbols of Table 1) was < 10 µM and the IC50 (specific values) was 0.479 µM.
With CCN(CC)C(=O)c1c(OCc2ccccc2)c(OCc2ccccc2)c(C(=O)N(CC)CC)n1-c1ccc(OC)cc1 [UL1-046, 3,4-bis(benzyloxy)-N^2,N^2,N^5,N^5-tetraethyl-1-(4-methoxyphenyl)-1H-pyrrole-2,5-dicarboxamide] the IC50 (class symbols of Table 1) was < 10 µM.
For COc1ccccc1-n1c(C(=O)N(C)C)c(OCc2ccccc2)c(OCc2ccccc2)c1C(=O)N(C)C [UL1-050, 3,4-bis(benzyloxy)-1-(2-methoxyphenyl)-N^2,N^2,N^5,N^5-tetramethyl-1H-pyrrole-2,5-dicarboxamide], the IC50 (class symbols of Table 1) was 10 to 20 µM.
With CCOC(=O)c1c(O)c(O)c(C(=O)OCC)n1-c1ccc(C(F)(F)F)cc1 [UL2-013, diethyl 3,4-dihydroxy-1-(4-(trifluoromethyl)phenyl)-1H-pyrrole-2,5-dicarboxylate] the IC50 (class symbols of Table 1) was < 10 µM.
For O=C(c1c(O)c(O)c(C(=O)N2CCOCC2)n1-c1ccc(C(F)(F)F)cc1)N1CCOCC1 [UL1-023, (3,4-dihydroxy-1-(4-(trifluoromethyl)phenyl)-1H-pyrrole-2,5-diyl)bis(morpholinomethanone)], the IC50 (class symbols of Table 1) was < 10 µM.
CCOC(=O)c1c(O)c(O)c(C(N)=O)n1-c1ccc(OC)cc1 [UL1-080, ethyl 5-carbamoyl-3,4-dihydroxy-1-(4-methoxyphenyl)-1H-pyrrole-2-carboxylate] was tested, and the IC50 (class symbols of Table 1) was < 10 µM.
With CCOC(=O)c1c(O)c(O)c(C(=O)N(C)C)n1-c1ccc(O)cc1 [UL1-100, ethyl 5-(dimethylcarbamoyl)-3,4-dihydroxy-1-(4-hydroxyphenyl)-1H-pyrrole-2-carboxylate] the IC50 (class symbols of Table 1) was < 10 µM.
For COc1ccc(-n2c(C(=O)N3CCOCC3)c(O)c(O)c2C(=O)N2CCOCC2)cc1 [UL1-004, (3,4-dihydroxy-1-(4-methoxyphenyl)-1H-pyrrole-2,5-diyl)bis(morpholinomethanone)], the IC50 (class symbols of Table 1) was < 10 µM and the IC50 (specific values) was 0.17 µM.
CCOC(=O)c1c(O)c(O)c(C(=O)N(C)C)n1-c1ccc(OCCOCCOCCOCCOC)cc1 [UL1-096, ethyl 1-(4-(2,5,8,11-tetraoxatridecan-13-yloxy)phenyl)-5-(dimethylcarbamoyl)-3,4-dihydroxy-1H-pyrrole-2-carboxylate] was tested, and the IC50 (class symbols of Table 1) was < 10 µM.
Work on CCOC(=O)c1c(OCc2ccccc2)c(OCc2ccccc2)c(-c2ccccc2OC)n1-c1ccc(OC)cc1 [UL1-081, ethyl 3,4-bis(benzyloxy)-5-(2-methoxyphenyl)-1-(4-methoxyphenyl)-1H-pyrrole-2-carboxylate] yielded an IC50 (class symbols of Table 1) of 20 to 60 µM.
CCNC(=O)c1c(O)c(O)c(C(=O)N(C)C)n1-c1ccc(OC)cc1 [UL1-024, N^2-ethyl-3,4-dihydroxy-1-(4-methoxyphenyl)-N^5,N^5-dimethyl-1H-pyrrole-2,5-dicarboxamide] was tested, and the IC50 (class symbols of Table 1) was < 10 µM and the IC50 (specific values) was 0.182 µM.
With CCOC(=O)c1c(O)c(O)c(C(=O)OCC)n1-c1ccccc1 [UL2-002, diethyl 3,4-dihydroxy-1-phenyl-1H-pyrrole-2,5-dicarboxylate] the IC50 (class symbols of Table 1) was < 10 µM.
With COc1ccc(-n2c(C(=O)N(C)C)c(OC(=O)C(C)(C)COCCOCCOP(=O)(O)O)c(OC(=O)C(C)(C)COCCOCCOP(=O)(O)O)c2C(=O)N(C)C)cc1 [UL1-121, 2,5-bis(dimethylcarbamoyl)-1-(4-methoxyphenyl)-1H-pyrrole-3,4-diyl bis(2,2-dimethyl-3-(2-(2-(phosphonooxy)ethoxy)ethoxy)propanoate)] the IC50 (class symbols of Table 1) was 10 to 20 µM.
For CN(C)C(=O)c1c(OCc2ccccc2)c(OCc2ccccc2)c(C#N)n1-c1ccc(F)cc1 [UL1-061, 3,4-bis(benzyloxy)-5-cyano-1-(4-fluorophenyl)-N,N-dimethyl-1H-pyrrole-2-carboxamide], the IC50 (class symbols of Table 1) was < 10 µM.
CN(C)C(=O)c1c(OCc2ccccc2)c(OCc2ccccc2)c(C(=O)N(C)C)n1-c1ccc(C(F)(F)F)cc1 [UL1-054, 3,4-bis(benzyloxy)-N^2,N^2,N^5,N^5-tetramethyl-1-(4-(trifluoromethyl)phenyl)-1H-pyrrole-2,5-dicarboxamide] showed an IC50 (class symbols of Table 1) of 10 to 20 µM.
